Laboratory results: patent US20220265629A1, “TREATMENT OF SYSTOLIC DYSFUNCTION AND HEART FAILURE WITH REDUCED EJECTION FRACTION WITH THE COMPOUND (R)-4-(1-((3-(DIFLUOROMETHYL)-1-METHYL-1H-PYRAZOL-4-YL)SULFONYL)-1-FLUOROETHYL)-N-(ISOXAZOL-3-YL)PIPERIDINE-1-CARBOXAMIDE” (MyoKardia, Inc., priority 2019, published 2022)

Columns and labels:
cardiac actin and myosin = cardiac actin and myosin (Homo sapiens, UniProt P12883); test: Crossbridge formation (phosphate release) and detachment (ADP release) between cardiac actin and myosin; format: biochemical
cardiac actin and myosin, sequence (P12883 whole entry): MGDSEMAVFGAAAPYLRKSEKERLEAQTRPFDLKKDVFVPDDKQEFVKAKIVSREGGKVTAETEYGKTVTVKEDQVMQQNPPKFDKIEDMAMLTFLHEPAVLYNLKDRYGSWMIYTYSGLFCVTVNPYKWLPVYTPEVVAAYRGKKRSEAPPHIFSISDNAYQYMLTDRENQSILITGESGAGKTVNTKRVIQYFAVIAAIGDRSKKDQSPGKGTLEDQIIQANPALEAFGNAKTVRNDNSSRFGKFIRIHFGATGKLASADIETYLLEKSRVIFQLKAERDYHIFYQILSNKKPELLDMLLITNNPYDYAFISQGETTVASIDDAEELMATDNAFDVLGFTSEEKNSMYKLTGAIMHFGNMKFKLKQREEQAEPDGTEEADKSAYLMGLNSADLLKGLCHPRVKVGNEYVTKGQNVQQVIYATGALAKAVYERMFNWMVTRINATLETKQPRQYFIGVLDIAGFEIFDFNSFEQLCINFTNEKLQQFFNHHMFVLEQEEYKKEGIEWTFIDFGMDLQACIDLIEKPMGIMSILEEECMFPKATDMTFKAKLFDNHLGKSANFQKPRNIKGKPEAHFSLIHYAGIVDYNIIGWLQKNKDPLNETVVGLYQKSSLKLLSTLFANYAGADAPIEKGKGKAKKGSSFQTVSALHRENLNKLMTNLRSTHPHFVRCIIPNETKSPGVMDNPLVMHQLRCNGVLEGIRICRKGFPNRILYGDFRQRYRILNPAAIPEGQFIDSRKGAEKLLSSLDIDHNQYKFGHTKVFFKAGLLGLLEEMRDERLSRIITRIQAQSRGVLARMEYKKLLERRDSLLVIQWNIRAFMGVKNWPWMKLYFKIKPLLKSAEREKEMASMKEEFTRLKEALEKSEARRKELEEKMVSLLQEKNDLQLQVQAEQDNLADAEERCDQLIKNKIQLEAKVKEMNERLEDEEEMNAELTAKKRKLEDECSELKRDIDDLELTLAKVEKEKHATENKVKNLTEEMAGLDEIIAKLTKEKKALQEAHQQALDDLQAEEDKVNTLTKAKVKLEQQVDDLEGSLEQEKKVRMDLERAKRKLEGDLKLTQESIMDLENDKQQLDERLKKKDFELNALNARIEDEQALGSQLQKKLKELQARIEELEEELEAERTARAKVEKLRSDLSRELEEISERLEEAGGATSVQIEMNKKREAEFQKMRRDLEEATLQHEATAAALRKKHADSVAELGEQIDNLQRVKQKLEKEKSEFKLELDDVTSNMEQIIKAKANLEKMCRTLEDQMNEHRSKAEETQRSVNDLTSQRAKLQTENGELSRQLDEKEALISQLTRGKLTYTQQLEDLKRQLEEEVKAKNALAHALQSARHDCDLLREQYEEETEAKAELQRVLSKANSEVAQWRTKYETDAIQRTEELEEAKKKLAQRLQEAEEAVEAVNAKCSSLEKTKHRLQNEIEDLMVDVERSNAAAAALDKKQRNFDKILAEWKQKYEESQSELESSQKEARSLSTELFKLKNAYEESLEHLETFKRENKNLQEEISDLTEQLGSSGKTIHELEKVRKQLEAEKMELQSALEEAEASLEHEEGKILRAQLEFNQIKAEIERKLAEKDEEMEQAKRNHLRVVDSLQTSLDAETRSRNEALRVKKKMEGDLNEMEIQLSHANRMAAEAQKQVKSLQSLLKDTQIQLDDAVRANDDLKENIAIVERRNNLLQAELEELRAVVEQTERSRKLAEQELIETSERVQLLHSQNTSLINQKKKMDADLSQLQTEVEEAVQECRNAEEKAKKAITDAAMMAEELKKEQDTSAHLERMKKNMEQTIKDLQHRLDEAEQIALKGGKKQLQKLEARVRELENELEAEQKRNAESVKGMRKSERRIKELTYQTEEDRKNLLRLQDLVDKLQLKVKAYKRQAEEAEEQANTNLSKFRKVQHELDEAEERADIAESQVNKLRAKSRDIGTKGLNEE
cardiac actin and myosin, sequence (P08590 whole entry partner): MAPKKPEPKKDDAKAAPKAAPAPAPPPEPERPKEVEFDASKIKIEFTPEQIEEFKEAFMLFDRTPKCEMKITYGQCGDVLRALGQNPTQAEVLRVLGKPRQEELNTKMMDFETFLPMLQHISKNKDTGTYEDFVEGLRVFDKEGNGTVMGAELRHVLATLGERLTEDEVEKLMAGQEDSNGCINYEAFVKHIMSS
Text: or a pharmaceutically acceptable salt thereof. […] Crossbridge formation and detachment are critical steps in each cycle of cardiac contraction. Compound I reversibly binds to myosin, increasing the number of myosin/actin crossbridges available to participate in the strongly bound state of the chemomechanical cycle and thereby increasing contraction.

[1] = tested on: patients with stable HFrEF; test: HFrEF study Part 2 (MAD Cohorts A-D): safety (TEAEs, serum troponin, ECG, Holter); format: in vivo, human
Procedure: Safety and efficacy assessments were conducted by measuring patients' vital signs and laboratory parameters; performing TTE to measure, e.g., systolic ejection time; performing electrocardiograms (e.g., 12-lead ECG), real-time ECG telemetry (e.g., at least 3-lead), and Holter ECG; and measuring levels of troponin (e.g., troponin I and/or troponin T) and […].
The following safety laboratory parameters were measured: (1) hematology parameters (CBC, including differential count, and platelet count); (2) serum chemistry parameters (e.g., sodium, potassium, chloride, bicarbonate, calcium, magnesium, urea, creatinine, ALP, ALT, AST, total bilirubin, glucose, and CPK); and (3) urinalysis parameters (e.g., pH, protein, glucose, leukocyte esterase, and blood).
Abnormal and/or rising troponin values (as per investigator's judgment and taking into account potential baseline troponin elevation frequently observed in heart failure) led to the patient being clinically evaluated for possible myocardial ischemia. […] The entire clinical context (e.g., signs, symptoms, new ECG changes, new troponin, and CK-MB abnormalities) was evaluated and correlated with any other relevant clinical findings, patient's medical history, and laboratory data to determine the clinical significance of the findings. Troponin results performed on Day 2 of Part 1 (SAD) and Day 10 of Part 2 (MAD) at a local lab were reviewed prior to the patient being discharged the next day.

[2] = Cohort A + C 75 mg BID (n = 15)

## Cn1cc(S(=O)(=O)[C@@](C)(F)C2CCN(C(=O)Nc3ccon3)CC2)c(C(F)F)n1 [Compound I, (R)-4-(1-((3-(difluoromethyl)-1-methyl-1H-pyrazol-4-yl)sulfonyl)-1-fluoroethyl)-N-(isoxazol-3-yl)piperidine-1-carboxamide]
Cardiac actin and myosin
  crossbridge detachment (measured as ADP release): does not inhibit crossbridge detachment
Cardiac actin and myosin; between cardiac actin and myosin
  crossbridge formation (measured as phosphate release): increases crossbridge formation
[1]; 50 mg
  patients with troponin increase: 2/9
[1]; 75 mg
  patients with troponin increase: 2/15
[1]; 100 mg
  patients with troponin increase: 3/6
[1]; [2]
  Any AE leading to death, number of patients (%): 0 n (%)
  Any TEAE leading to permanent treatment discontinuation, number of patients (%): 0 n (%)
  Any TEAE, number of patients (%): 6 (40.0) n (%)
  Any serious TEAE, number of patients (%): 1 (6.7) n (%)
  TEAE: Abdominal discomfort: 0 n (%)
  TEAE: Alanine aminotransferase increased: 1 (6.7) n (%)
  TEAE: Anemia: 1 (6.7) n (%)
  TEAE: Application site erosion: 0 n (%)
  TEAE: Arthralgia: 0 n (%)
  TEAE: Arthropod bite: 0 n (%)
  TEAE: Back pain: 0 n (%)
  TEAE: Blood creatine phosphokinase increased: 0 n (%)
  TEAE: Blood creatinine increased: 0 n (%)
  TEAE: Cough: 1 (6.7) n (%)
  TEAE: Dermatitis contact: 0 n (%)
  TEAE: Dry eye: 0 n (%)
  TEAE: Fatigue: 2 (13.3) n (%)
  TEAE: Fluid overload: 0 n (%)
  TEAE: Gingival pain: 0 n (%)
  TEAE: Hyperkalemia: 0 n (%)
  TEAE: Infusion site erythema: 0 n (%)
  TEAE: Nasopharyngitis: 0 n (%)
  TEAE: Rash: 0 n (%)
  TEAE: Renal failure: 0 n (%)
  TEAE: Renal impairment: 0 n (%)
  TEAE: Testicular pain: 0 n (%)
  TEAE: Troponin increased: 1 (6.7) n (%)
  TEAE: Ventricular tachycardia: 0 n (%)
[1]; Cohort B 50 mg BID (n = 9)
  Any AE leading to death, number of patients (%): 0 n (%)
  Any TEAE leading to permanent treatment discontinuation, number of patients (%): 0 n (%)
  Any TEAE, number of patients (%): 7 (77.8) n (%)
  Any serious TEAE, number of patients (%): 0 n (%)
  TEAE: Abdominal discomfort: 1 (11.1) n (%)
  TEAE: Alanine aminotransferase increased: 1 (11.1) n (%)
  TEAE: Anemia: 0 n (%)
  TEAE: Application site erosion: 1 (11.1) n (%)
  TEAE: Arthralgia: 0 n (%)
  TEAE: Arthropod bite: 0 n (%)
  TEAE: Back pain: 0 n (%)
  TEAE: Blood creatine phosphokinase increased: 1 (11.1) n (%)
  TEAE: Blood creatinine increased: 0 n (%)
  TEAE: Cough: 0 n (%)
  TEAE: Dermatitis contact: 2 (22.2) n (%)
  TEAE: Dry eye: 0 n (%)
  TEAE: Fatigue: 0 n (%)
  TEAE: Fluid overload: 1 (11.1) n (%)
  TEAE: Gingival pain: 0 n (%)
  TEAE: Hyperkalemia: 1 (11.1) n (%)
  TEAE: Infusion site erythema: 1 (11.1) n (%)
  TEAE: Nasopharyngitis: 0 n (%)
  TEAE: Rash: 1 (11.1) n (%)
  TEAE: Renal failure: 0 n (%)
  TEAE: Renal impairment: 0 n (%)
  TEAE: Testicular pain: 0 n (%)
  TEAE: Troponin increased: 0 n (%)
  TEAE: Ventricular tachycardia: 1 (11.1) n (%)
[1]; Cohort D 100 mg BID (n = 6)
  Any AE leading to death, number of patients (%): 0 n (%)
  Any TEAE leading to permanent treatment discontinuation, number of patients (%): 0 n (%)
  Any TEAE, number of patients (%): 4 (66.7) n (%)
